Results as given in PubChem BioAssay (NCI).
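A five-concentration, 48-hour dose response in 96-well plates underlies each endpoint, interpolated linearly between surrounding concentrations. TGI is the concentration that stops growth completely.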

What was measured:
Experiment in all cases: growth of human tumour cells (NCI), 48 h
K-562 leukemia = test system: K-562 leukemia
DMS 114 small cell lung = test system: DMS 114 small cell lung
HOP-18 NSCLC = test system: HOP-18 NSCLC
EKVX NSCLC = test system: EKVX NSCLC
M19-MEL melanoma = test system: M19-MEL melanoma
DLD-1 colon = test system: DLD-1 colon
KM20L2 colon = test system: KM20L2 colon
SNB-19 CNS = test system: SNB-19 CNS
LXFL 529 NSCLC = test system: LXFL 529 NSCLC
DMS 273 small cell lung = test system: DMS 273 small cell lung
SNB-78 CNS = test system: SNB-78 CNS
XF 498 CNS = test system: XF 498 CNS
HS 578T breast = test system: HS 578T breast

Compound	TGI (K-562 leukemia)	TGI (DMS 114 small cell lung)	TGI (HOP-18 NSCLC)	TGI (EKVX NSCLC)	TGI (M19-MEL melanoma)	TGI (DLD-1 colon)	TGI (KM20L2 colon)	TGI (SNB-19 CNS)	TGI (LXFL 529 NSCLC)	TGI (DMS 273 small cell lung)	TGI (SNB-78 CNS)	TGI (XF 498 CNS)	TGI (HS 578T breast)
CO[C@@H]1C=C[C@@]23c4cc5c(cc4C(=O)O[C@H]2CN(C)[C@H]3C1)OCO5	> 100 µM	> 100 µM	> 100 µM	> 100 µM	> 100 µM	> 100 µM	> 100 µM	> 100 µM	> 100 µM	> 100 µM	> 100 µM	> 100 µM	
CC(=O)NC1=C(NCCN(C)C)C(=O)c2ccccc2C1=O	> 50 µM			> 50 µM	14.3 µM	> 50 µM	> 50 µM	> 50 µM	> 50 µM	27.6 µM	> 50 µM	35.1 µM	
CC(C)(C)OC(=O)NCCc1cccc2c1oc1c(CCC(=O)O)cccc12	> 100 µM	> 100 µM	> 100 µM		> 100 µM	> 100 µM	> 100 µM	> 100 µM	> 100 µM	> 100 µM	> 100 µM	> 100 µM	
COC1=CCC=C(C[C@@H]2NCCc3cc(OC)c(OC)cc32)C1	> 100 µM			> 100 µM	> 100 µM	> 100 µM	> 100 µM	> 100 µM	> 100 µM	> 100 µM	> 100 µM	> 100 µM	
CC1(C)C(O)C[C@@H](O)[C@@]2(C)C1CC[C@]1(C)C2C[C@@H](O)[C@@H]2C([C@@]3(C)CC[C@@H](C(C)(C)O)O3)CCC21C (stereo not given in full)	> 100 µM	29.1 µM	31.1 µM	53.9 µM		31.5 µM	31.2 µM	30.4 µM	22.4 µM	27.7 µM	43.8 µM	33.7 µM	
CCc1c(Cc2[nH]c(Cc3[nH]c(C=O)c(C)c3CC)c(CC)c2CC)[nH]c(C=O)c1C	> 100 µM	> 100 µM	> 100 µM	> 100 µM	> 100 µM	> 100 µM	> 100 µM	> 100 µM	> 100 µM	> 100 µM	> 100 µM	> 100 µM	
CCOc1ccc(N/C(Cl)=C(Cl)\C(=C(\Nc2ccc(OCC)cc2)n2nnc3ccccc32)[N+](=O)[O-])cc1	> 21.6 µM			31.3 µM				34.4 µM					> 100 µM
